Key:
Type in all cases: cell-based
[1] = biological target: T1, NaV1.5 (Homo sapiens (Human), UniProt Q14524); assay: Patch voltage clamp electrophysiology (EP), affinity for the inactivated state of Nav1.5
Method: Patch voltage clamp electrophysiology allows for the direct measurement and quantification of block of voltage-gated sodium channels (Nav's), and allows the determination of the time- and voltage-dependence of block which has been interpreted as differential binding to the resting, open, and inactivated states of the sodium channel (Hille, B., Journal of General Physiology (1977), 69: 497-515).
(§1) The following patch voltage clamp electrophysiology studies were performed on representative compounds of the invention using human embryonic kidney cells (HEK), permanently transfected with an expression vector containing the full-length cDNA coding for the desired human sodium channel α-subunit, grown in culture media containing 10% FBS, 1% PSG, and 0.5 mg/mL G418 at 37° C. with 5% CO2. […] Nav1.7 and Nav1.5 cDNAs (NM_002977 and AC137587; SCN5A, respectively) were stably expressed in HEK-293 cells. The β1 subunit was coexpressed only in the Nav1.7 cell line.
(§2) Sodium currents were measured using the patch clamp technique in the whole-cell configuration using either a PatchXpress automated voltage clamp or manually using an Axopatch 200B (Axon Instruments) or Model 2400 (A-M systems) amplifier. […] The pipette was filled with a solution comprised of: 5 mM NaCl, 10 mM CsCl, 120 mM CsF, 0.1 mM CaCl2, 2 mM MgCl2, 10 mM HEPES, 10 mM EGTA; and adjusted to pH 7.2 with CsOH. The external solution had the following composition: 140 mM NaCl, 5 mM KCl, 2 mM CaCl2, 1 mM MgCl2, 10 mM HEPES; and adjusted to pH 7.4 with NaOH. In some studies, the external sodium was reduced by equimolar replacement with choline. Osmolarity in the CsF internal and NaCl external solutions was adjusted to 300 mOsm/kg and 310 mOsm/kg with glucose, respectively. All recordings were performed at ambient temperature in a bath chamber with a volume of 150 μL. Control sodium currents were measured in 0.5% DMSO. Controls and representative compounds of the invention were applied to the recording chamber through a 4-pinch or 8-pinch valve bath perfusion system manufactured by ALA Scientific Instruments.
Currents were recorded at 40 kHz sampling frequency, filtered at […], and stored using a Digidata-1322A analogue/digital interface with the pClamp software (Axon Instruments). Series resistance compensation was applied (60-80%). […] All statistics in this study are given as mean±SD.
(§3) The membrane potential was maintained at a voltage where inactivation of the channel is complete (which was −60 mV for both Nav1.7 and Nav1.5). The voltage is then stepped back to a very negative (Vhold=−150 mV) voltage for 20 ms and then a test pulse is applied to quantify the compound block. […] The percent decrease in sodium current following wash-on of compound was taken as the percent block of sodium channels.
(§4) The Example numbers provided in Table 1 and Table 2 correspond to the Examples herein: […]

[2] = biological target: T2, NaV1.7 (Homo sapiens (Human), UniProt Q15858); assay: Patch voltage clamp electrophysiology (EP), affinity for the inactivated state of Nav1.7; settings: HEK-293 cells expressing human Nav1.7 with β1 subunit
Method: as §1, §2
Series resistance compensation was applied (60-80%). […] All statistics in this study are given as mean±SD.
as §3, §4

[3] = biological target: T2, NaV1.7; assay: NaV flux assay, inhibition of NaV1.7; settings: NaV flux data, included when EP data is not available
[4] = biological target: T1, NaV1.5; assay: NaV flux assay, inhibition of NaV1.5; settings: NaV flux data, included when EP data is not available
[5] = HEK-293 cells expressing human Nav1.5, read-out: NaV1.5 IC50
[6] = HEK-293 cells expressing human Nav1.5, read-out: NaV1.5 IC50(μM) (class)

T1 sequence (Q14524 whole entry): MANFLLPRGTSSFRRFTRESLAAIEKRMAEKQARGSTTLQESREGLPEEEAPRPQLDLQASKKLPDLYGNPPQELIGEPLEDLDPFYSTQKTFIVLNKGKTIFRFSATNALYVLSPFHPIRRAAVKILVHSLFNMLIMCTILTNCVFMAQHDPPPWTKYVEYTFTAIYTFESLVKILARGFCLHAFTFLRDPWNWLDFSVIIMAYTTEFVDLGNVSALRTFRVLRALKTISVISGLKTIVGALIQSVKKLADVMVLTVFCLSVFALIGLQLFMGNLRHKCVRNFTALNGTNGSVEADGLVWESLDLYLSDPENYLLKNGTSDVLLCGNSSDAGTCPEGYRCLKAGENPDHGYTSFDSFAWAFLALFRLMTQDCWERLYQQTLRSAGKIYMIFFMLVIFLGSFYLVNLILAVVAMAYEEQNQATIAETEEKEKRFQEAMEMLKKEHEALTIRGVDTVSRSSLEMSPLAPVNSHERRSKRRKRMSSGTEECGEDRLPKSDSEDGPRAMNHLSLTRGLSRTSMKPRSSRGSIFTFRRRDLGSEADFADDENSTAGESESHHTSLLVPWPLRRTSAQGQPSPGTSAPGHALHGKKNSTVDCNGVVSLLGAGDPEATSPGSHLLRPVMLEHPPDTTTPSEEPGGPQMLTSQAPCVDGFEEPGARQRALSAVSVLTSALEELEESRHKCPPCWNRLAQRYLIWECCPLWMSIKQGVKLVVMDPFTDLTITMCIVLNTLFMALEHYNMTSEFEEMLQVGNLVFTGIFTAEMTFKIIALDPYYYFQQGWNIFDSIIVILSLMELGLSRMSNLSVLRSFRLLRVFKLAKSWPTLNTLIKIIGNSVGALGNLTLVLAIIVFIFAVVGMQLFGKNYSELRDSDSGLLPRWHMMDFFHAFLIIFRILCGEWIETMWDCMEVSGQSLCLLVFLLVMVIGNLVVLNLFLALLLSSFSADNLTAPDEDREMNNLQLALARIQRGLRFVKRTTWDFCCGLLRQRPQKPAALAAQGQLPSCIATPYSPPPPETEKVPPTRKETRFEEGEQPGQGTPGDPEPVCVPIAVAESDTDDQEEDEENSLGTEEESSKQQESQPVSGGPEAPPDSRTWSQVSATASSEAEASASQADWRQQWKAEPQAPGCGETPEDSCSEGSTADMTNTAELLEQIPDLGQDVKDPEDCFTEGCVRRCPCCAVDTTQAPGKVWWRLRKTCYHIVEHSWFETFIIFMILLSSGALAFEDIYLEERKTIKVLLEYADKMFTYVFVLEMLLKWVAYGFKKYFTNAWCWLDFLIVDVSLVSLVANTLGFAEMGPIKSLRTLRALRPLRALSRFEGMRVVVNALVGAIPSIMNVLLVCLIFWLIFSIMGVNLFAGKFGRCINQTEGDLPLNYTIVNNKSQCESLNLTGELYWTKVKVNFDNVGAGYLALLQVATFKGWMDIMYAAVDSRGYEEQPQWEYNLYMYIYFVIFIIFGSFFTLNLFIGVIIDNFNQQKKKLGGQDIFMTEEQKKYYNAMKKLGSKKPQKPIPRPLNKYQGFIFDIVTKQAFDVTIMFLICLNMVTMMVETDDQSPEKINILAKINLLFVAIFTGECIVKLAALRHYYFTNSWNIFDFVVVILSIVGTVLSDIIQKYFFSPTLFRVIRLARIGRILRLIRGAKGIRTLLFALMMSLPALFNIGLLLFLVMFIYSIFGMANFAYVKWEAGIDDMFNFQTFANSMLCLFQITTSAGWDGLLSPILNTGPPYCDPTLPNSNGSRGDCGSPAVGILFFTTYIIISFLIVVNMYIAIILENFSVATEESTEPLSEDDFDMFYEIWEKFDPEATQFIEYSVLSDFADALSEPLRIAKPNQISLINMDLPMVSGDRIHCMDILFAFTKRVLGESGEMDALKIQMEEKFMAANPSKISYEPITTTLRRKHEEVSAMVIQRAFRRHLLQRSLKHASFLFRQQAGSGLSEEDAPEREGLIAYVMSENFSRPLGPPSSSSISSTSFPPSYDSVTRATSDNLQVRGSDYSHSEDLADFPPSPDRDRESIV
T2 sequence (Q15858 other isoform, or with tags, fused parts or gaps): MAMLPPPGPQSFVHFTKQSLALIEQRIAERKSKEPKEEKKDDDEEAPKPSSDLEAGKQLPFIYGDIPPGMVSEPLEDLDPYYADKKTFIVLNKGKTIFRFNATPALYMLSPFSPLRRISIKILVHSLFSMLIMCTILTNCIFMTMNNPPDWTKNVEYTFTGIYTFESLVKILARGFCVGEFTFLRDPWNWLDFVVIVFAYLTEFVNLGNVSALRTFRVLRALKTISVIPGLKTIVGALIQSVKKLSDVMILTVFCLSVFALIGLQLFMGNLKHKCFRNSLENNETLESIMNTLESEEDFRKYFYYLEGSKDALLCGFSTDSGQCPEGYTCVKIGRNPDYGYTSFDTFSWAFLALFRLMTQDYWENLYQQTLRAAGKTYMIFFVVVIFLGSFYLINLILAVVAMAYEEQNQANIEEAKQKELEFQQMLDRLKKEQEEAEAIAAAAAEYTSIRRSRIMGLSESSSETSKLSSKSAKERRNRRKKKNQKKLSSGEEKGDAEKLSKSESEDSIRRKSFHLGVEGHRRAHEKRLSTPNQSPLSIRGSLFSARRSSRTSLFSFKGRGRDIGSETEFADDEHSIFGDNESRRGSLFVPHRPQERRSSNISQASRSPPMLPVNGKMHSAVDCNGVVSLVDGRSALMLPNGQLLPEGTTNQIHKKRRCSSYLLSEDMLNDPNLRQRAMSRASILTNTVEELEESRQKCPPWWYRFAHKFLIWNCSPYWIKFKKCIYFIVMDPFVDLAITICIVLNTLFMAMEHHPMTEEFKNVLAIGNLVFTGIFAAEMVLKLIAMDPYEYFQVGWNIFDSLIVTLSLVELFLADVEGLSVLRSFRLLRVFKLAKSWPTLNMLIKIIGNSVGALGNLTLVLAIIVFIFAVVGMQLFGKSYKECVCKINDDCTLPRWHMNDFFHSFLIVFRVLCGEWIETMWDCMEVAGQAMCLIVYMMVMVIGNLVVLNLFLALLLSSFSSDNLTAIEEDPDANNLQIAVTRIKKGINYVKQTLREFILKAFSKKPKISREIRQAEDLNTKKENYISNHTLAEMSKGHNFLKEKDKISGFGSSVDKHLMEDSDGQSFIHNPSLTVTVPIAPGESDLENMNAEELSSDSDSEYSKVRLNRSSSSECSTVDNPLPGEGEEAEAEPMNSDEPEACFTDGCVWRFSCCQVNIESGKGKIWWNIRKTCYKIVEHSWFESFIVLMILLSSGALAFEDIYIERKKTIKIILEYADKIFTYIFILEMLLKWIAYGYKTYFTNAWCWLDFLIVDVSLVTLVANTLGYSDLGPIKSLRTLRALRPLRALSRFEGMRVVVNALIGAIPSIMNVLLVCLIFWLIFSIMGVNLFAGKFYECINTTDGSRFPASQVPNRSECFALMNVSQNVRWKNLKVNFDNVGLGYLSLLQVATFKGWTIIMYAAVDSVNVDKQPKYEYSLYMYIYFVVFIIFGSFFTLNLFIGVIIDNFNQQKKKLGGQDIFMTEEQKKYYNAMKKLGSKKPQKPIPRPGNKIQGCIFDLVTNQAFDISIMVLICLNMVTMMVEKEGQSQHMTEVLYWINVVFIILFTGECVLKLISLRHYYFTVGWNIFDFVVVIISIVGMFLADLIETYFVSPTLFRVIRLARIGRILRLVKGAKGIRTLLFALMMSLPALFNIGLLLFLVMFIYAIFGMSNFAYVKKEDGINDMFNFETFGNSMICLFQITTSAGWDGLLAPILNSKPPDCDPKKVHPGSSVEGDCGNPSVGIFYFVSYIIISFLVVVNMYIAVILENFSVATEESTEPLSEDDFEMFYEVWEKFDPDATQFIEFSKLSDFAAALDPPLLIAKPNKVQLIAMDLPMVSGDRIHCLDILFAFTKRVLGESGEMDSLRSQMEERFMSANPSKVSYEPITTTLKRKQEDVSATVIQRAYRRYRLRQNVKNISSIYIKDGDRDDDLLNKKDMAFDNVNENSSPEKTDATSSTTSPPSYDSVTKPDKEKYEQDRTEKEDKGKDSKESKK
T2 sequence (Q07699 19-218 partner): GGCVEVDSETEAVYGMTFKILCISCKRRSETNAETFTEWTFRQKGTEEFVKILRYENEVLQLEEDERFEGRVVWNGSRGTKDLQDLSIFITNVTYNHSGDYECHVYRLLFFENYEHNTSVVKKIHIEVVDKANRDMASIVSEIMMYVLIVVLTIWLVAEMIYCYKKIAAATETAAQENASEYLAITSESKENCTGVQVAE

Row | Structure (SMILES) | IC50 [1, 5] [µM] | IC50 [1, 6] [µM] | IC50 ([2]; read-out: NaV1.7 (IC50 class)) [nM] | IC50 ([2]; read-out: NaV1.7 IC50) [nM] | IC50 [3] [nM] | IC50 [4] [nM]
1 | NC(=O)N1CC[C@@H](c2ccc(F)c(F)c2)[C@H](COc2cc(F)c(S(=O)(=O)Nc3ncc(Cl)s3)cc2F)C1 (relative stereo) [Example 89, trans-3-((4-(N-(5-chlorothiazol-2-yl)sulfamoyl)-2,5-difluorophenoxy)methyl)-4-(3,4-difluorophenyl)piperidine-1-carboxamide] | > 10 | > 10 | 100 to 1000 | 436 | – | –
2 | CN1CC[C@H](c2ccc(Cl)cc2)[C@@H](COc2cc(F)c(S(=O)(=O)Nc3ncns3)cc2F)C1 [Example 85, 4-(((3R,4S)-4-(4-chlorophenyl)-1-methylpiperidin-3-yl)methoxy)-2,5-difluoro-N-(1,2,4-thiadiazol-5-yl)benzenesulfonamide] | > 10 | > 10 | < 100 | 4.8 | – | –
3 | O=S(=O)(Nc1ncns1)c1cc(F)c(OC[C@@H]2CNCC[C@H]2c2ccc(F)cc2)cc1F (relative stereo) [Example 45, 2,5-difluoro-4-((trans-4-(4-fluorophenyl)piperidin-3-yl)methoxy)-N-(1,2,4-thiadiazol-5-yl)benzenesulfonamide] | > 10 | > 10 | < 100 | 6.8 | – | –
4 | O=S(=O)(Nc1ncns1)c1cc(F)c(OCC2(F)CNCCC2c2ccc(F)cc2)cc1F (stereo not shown) [Example 47, 2,5-difluoro-4-((3-fluoro-4-(4-fluorophenyl)piperidin-3-yl)methoxy)-N-(1,2,4-thiadiazol-5-yl)benzenesulfonamide] | > 10 | > 10 | < 100 | 50.7 | – | –
5 | O=S(=O)(Nc1ncns1)c1cc(F)c(OC[C@@H]2CN(CC(F)(F)F)CC[C@H]2c2ccc(Cl)cc2)cc1F (relative stereo) [Example 88, 4-((trans-4-(4-chlorophenyl)-1-(2,2,2-trifluoroethyl)piperidin-3-yl)methoxy)-2,5-difluoro-N-(1,2,4-thiadiazol-5-yl)benzenesulfonamide] | > 10 | > 10 | 100 to 1000 | 130 | – | –
6 | O=C1C[C@@H](c2cc(F)c(F)cc2F)[C@H](COc2cc(F)c(S(=O)(=O)Nc3ncns3)cc2F)CN1 (relative stereo) [Example 101, 2,5-difluoro-4-((trans-6-oxo-4-(2,4,5-trifluorophenyl)piperidin-3-yl)methoxy)-N-(1,2,4-thiadiazol-5-yl)benzenesulfonamide] | – | – | – | – | 4490 | –
7 | CN1CC[C@@H](c2ccc(Cl)cc2)[C@H](COc2cc(F)c(S(=O)(=O)Nc3ncns3)cc2F)C1 (relative stereo) [Example 70, 4-((trans-4-(4-chlorophenyl)-1-methylpiperidin-3-yl)methoxy)-2,5-difluoro-N-(1,2,4-thiadiazol-5-yl)benzenesulfonamide] | > 10 | > 10 | < 100 | 12 | – | –
8 | NS(=O)(=O)c1cc(F)c(OC[C@@H]2CNCC[C@H]2c2ccc(Cl)cc2)cc1F (relative stereo) [Example 95, 4-((trans-4-(4-chlorophenyl)piperidin-3-yl)methoxy)-2,5-difluorobenzenesulfonamide] | – | – | – | – | > 10000 | –
9 | O=S(=O)(Nc1ncns1)c1cc(F)c(OC[C@@H]2CNCC[C@H]2c2ccc(Cl)c(F)c2)cc1F (relative stereo) [Example 97, 4-((trans-4-(4-chloro-3-fluorophenyl)piperidin-3-yl)methoxy)-2,5-difluoro-N-(1,2,4-thiadiazol-5-yl)benzenesulfonamide] | – | – | – | – | – | > 10000
10 | N#Cc1cc(S(=O)(=O)Nc2ncns2)ccc1OC[C@@H]1CNCC[C@H]1c1ccc(Cl)cc1 (relative stereo) [Example 58, 4-((trans-4-(4-chlorophenyl)piperidin-3-yl)methoxy)-3-cyano-N-(1,2,4-thiadiazol-5-yl)benzenesulfonamide] | > 10 | > 10 | < 100 | 3.3 | – | –
11 | O=S(=O)(Nc1ncc(Cl)s1)c1cc(F)c(OC[C@@H]2CNCC[C@H]2c2ccc(F)c(F)c2)cc1F (relative stereo) [Example 61, N-(5-chlorothiazol-2-yl)-4-((trans-4-(3,4-difluorophenyl)piperidin-3-yl)methoxy)-2,5-difluorobenzenesulfonamide] | > 10 | > 10 | < 100 | 21.6 | – | –
12 | O=S(=O)(Nc1ncns1)c1cc(F)c(OC[C@@H]2CNCC[C@H]2c2ccc(Cl)cc2)c(F)c1 (relative stereo) [Example 81, 4-((trans-4-(4-chlorophenyl)piperidin-3-yl)methoxy)-3,5-difluoro-N-(1,2,4-thiadiazol-5-yl)benzenesulfonamide] | – | – | – | – | 2320 | –
13 | Cn1cns/c1=N/S(=O)(=O)c1cc(F)c(OC[C@@H]2CNCC[C@H]2c2ccc(Cl)cc2)cc1F (relative stereo) [Example 78, (E)-4-((trans-4-(4-chlorophenyl)piperidin-3-yl)methoxy)-2,5-difluoro-N-(4-methyl-1,2,4-thiadiazol-5(4H)-ylidene)benzenesulfonamide] | – | – | – | – | 4080 | –
14 | O=C(NS(=O)(=O)c1cc(F)c(OC[C@@H]2CNCC[C@H]2c2ccc(Cl)cc2)cc1F)c1ccccn1 (relative stereo) [Example 99, N-((4-((trans-4-(4-chlorophenyl)piperidin-3-yl)methoxy)-2,5-difluorophenyl)sulfonyl)picolinamide] | – | – | – | – | > 10000 | –
15 | N#Cc1cc(S(=O)(=O)NCC(F)(F)F)ccc1OC[C@@H]1CNCC[C@H]1c1ccc(Cl)cc1 (relative stereo) [Example 93, 4-((trans-4-(4-chlorophenyl)piperidin-3-yl)methoxy)-3-cyano-N-(2,2,2-trifluoroethyl)benzenesulfonamide] | – | – | – | – | > 10000 | –
16 | CC(C)NC(=O)NS(=O)(=O)c1cc(F)c(OC[C@@H]2CNCC[C@H]2c2ccc(Cl)cc2)cc1F (relative stereo) [Example 105, 4-((trans-4-(4-chlorophenyl)piperidin-3-yl)methoxy)-2,5-difluoro-N-(isopropylcarbamoyl)benzenesulfonamide] | – | – | – | – | > 10000 | –
17 | CN1CC[C@@H](c2ccc(Cl)cc2)[C@H](COc2cc(F)c(S(=O)(=O)Nc3ncns3)cc2F)C1 [Example 86, 4-(((3S,4R)-4-(4-chlorophenyl)-1-methylpiperidin-3-yl)methoxy)-2,5-difluoro-N-(1,2,4-thiadiazol-5-yl)benzenesulfonamide] | > 10 | > 10 | 100 to 1000 | 331 | – | –
18 | O=C1C[C@@H](c2ccc(F)cc2)[C@H](COc2cc(F)c(S(=O)(=O)Nc3ncns3)cc2F)CN1 (relative stereo) [Example 87, 2,5-difluoro-4-((trans-4-(4-fluorophenyl)-6-oxopiperidin-3-yl)methoxy)-N-(1,2,4-thiadiazol-5-yl)benzenesulfonamide] | > 10 | > 10 | < 100 | 82 | – | –
19 | O=S(=O)(Nc1ncns1)c1ccc(OC[C@@H]2CNCC[C@H]2c2ccc(Cl)cc2)c(F)c1 (relative stereo) [Example 59, 4-((trans-4-(4-chlorophenyl)piperidin-3-yl)methoxy)-3-fluoro-N-(1,2,4-thiadiazol-5-yl)benzenesulfonamide] | > 10 | > 10 | < 100 | 8.6 | – | –
20 | O=S(=O)(Nc1ncns1)c1cc(F)c(OC[C@@H]2CNCC[C@H]2c2ccc(Cl)c(Cl)c2)cc1F (relative stereo) [Example 92, 4-((trans-4-(3,4-dichlorophenyl)piperidin-3-yl)methoxy)-2,5-difluoro-N-(1,2,4-thiadiazol-5-yl)benzenesulfonamide] | – | – | < 100 | 0.8 | – | > 10000

Reference: patent US9630929B2, “Benzenesulfonamide compounds and their use as therapeutic agents” (XENON PHARMACEUTICALS INC., priority 2011, dated 2017)
